What was measured:
[1] = Superoxide free radical-scavenging activity by NBT (nitro blue tetrazolium) method
Method: Superoxide Free Radical-Scavenging Activity. The superoxide free radical-scavenging activity was determined by the NBT (nitro blue tetrazolium) method. The reaction mixture contained EDTA (6.6 mM), NaCN (3 μg), riboflavin (2 μM), NBT (50 μM), various concentrations of the test drug in ethanol and a phosphate buffer (58 mM, pH 7.8) in a final volume of 3 ml. Optical density was measured at 560 nm. The test tubes were uniformly illuminated with an incandescent lamp for 15 min, after which the optical density was measured again at 560 nm. The percentage inhibition and superoxide radical generation was measured by comparing the absorbance values of the control and those of the test compounds.
(§1) The new phytochemical compositions of this invention are found to show antioxidant activity (Table 1; antioxidant activity is measured by two different mechanisms (a) Nitro blue tetrazolium (NBT) (b) DPPH free radical scavenging methods and are expressed in % of inhibition at 500 μg concentrations; higher the % inhibitory values, higher is the activity).

[2] = DPPH free radical scavenging activity
Method: DPPH Free Radical Scavenging Activity. DPPH (1,1-diphenyl-2-picryl-hydrazyl) radical scavenging activity was measured based on the reduction of methanolic solution of the colored DPPH. Free radical scavenging ability of the test drug in ethanol added to the methanolic solution of DPPH is […] to the difference in initial and final absorption of DPPH solution at 516 nm. The reaction mixture contained 1×10^−4 mM methanolic solution of DPPH and various concentrations of test drugs. The percentage inhibition was determined by comparing the absorbance values of test and control tubes.
as §1

5-Lipoxygenase = 5-Lipoxygenase inhibitory activity, colorimetric method (ferric xylenol orange); format: biochemical
Method: 5-Lipoxygenase Activity: The new phytochemical compositions were screened for their 5-Lipoxygenase inhibitory potential using colorimetric method. The assay mixture contained 50 mM phosphate buffer pH 6.3, 5-Lipoxygenase, various concentrations of test substances in dimethyl sulphoxide and linoleic acid in a total volume of 0.5 mL, after 5 min incubation of above reaction mixture, 0.5 mL ferric xylenol orange reagent was added and OD was measured after two minutes at 585 nm using spectrophotometer. Controls were run along with test in a similar manner except using vehicle instead of test substance solution. Percent inhibition was calculated by comparing absorbance of test solution with that of control. The new phytochemical compositions of this invention are found to show 5-lipoxygenase activity (Table 1; 5-lipoxygenase activity is expressed in % of inhibition at 100 μg concentrations; higher the % inhibitory values, higher is the activity).

[3] = in vivo; cited from earlier work
[4] = similar active dose; animal study; cited from earlier work

Molecule	% inhibition of NBT free radical scavenging activity at 500 μg concentrations [1] [%]	% inhibition of DPPH free radical scavenging activity at 500 μg concentrations [2] [%]	% inhibition of 5-LOX activity at 100 μg concentrations (5-Lipoxygenase) [%]	LD50 [3] [mg/kg]	ulcerogan index [4]
Cl.N[C@H]1C(O)O[C@H](CO)[C@@H](O)[C@@H]1O (some centres unmarked) [Glucosamine HCl, glucosamine hydrochloride]	5.6	2.8	0	–	–
N[C@@H](Cc1c[nH]c2ccc(O)cc12)C(=O)O [Composition 5-HTP, 5-Hydroxytryptophan]	–	–	–	> 2500	–
CCCCC1C(=O)N(c2ccccc2)N(c2ccccc2)C1=O [phenylbutazone]	–	–	–	–	1.7
Calcium, potassium salt of (−)-HCA [HCA (70%)]	25.5	0	0.2	–	–
